Results as given in patent US9884130B2, “Compositions for delivery of oral comfort sensations” (The Procter & Gamble Company, priority 2013, dated 2018).
Structures can show the parent of a compound that is named as a salt. Where two headings read alike, the source gives them in different places. One block for each compound: values may come before it.

Tests used:
[1] = target: T1, mouse TREK-1 (mTREK-1t) (Mus musculus, UniProt P97438); assay: FLIPR membrane potential assay in HEK-293 cells stably transfected with mTREK-1t; type: cell-based
T1 construct: (mTREK-1t) by Capital Biosciences (Rockville, Md.)
T1 sequence (P97438 with tags, fused parts or gaps limits assumed): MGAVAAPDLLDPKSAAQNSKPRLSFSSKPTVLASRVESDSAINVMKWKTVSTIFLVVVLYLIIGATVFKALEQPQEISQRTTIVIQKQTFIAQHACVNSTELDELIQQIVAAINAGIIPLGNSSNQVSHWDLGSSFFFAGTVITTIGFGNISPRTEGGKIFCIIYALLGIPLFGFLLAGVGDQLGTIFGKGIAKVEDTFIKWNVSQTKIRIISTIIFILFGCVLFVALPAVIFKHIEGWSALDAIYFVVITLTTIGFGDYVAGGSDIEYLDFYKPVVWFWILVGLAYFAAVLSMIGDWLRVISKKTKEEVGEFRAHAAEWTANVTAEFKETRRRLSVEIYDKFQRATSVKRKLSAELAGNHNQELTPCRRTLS

[2] = concentration level where the cooling effect can be clearly recognized; cited from earlier work
[3] = HEK293, read-out: Fluorescence per Sample concentration (percent activity relative to potassium nitrate)
[4] = HEK293, sample concentration 50 μM, relative to 50 mM potassium nitrate, read-out: Fluorescence per Sample concentration (percent activity relative to potassium nitrate)
[5] = HEK293, sample concentration 100 μM, relative to 50 mM potassium nitrate, read-out: Fluorescence per Sample concentration (percent activity relative to potassium nitrate)
[6] = HEK293, sample concentration 200 μM, relative to 50 mM potassium nitrate, read-out: Fluorescence per Sample concentration (percent activity relative to potassium nitrate)
[7] = HEK293, Sample Conc. 0.0005%, read-out: Activity Level (percentage of activity relative to 100% with 50 mM potassium nitrate)
[8] = HEK293, Sample Conc. 0.0010%, read-out: Activity Level (percentage of activity relative to 100% with 50 mM potassium nitrate)
[9] = HEK293, Sample Conc. 0.0021%, read-out: Activity Level (percentage of activity relative to 100% with 50 mM potassium nitrate)
[10] = HEK293, Sample Conc. 0.0042%, read-out: Activity Level (percentage of activity relative to 100% with 50 mM potassium nitrate)
[11] = HEK293, Sample Conc. 0.0083%, read-out: Activity Level (percentage of activity relative to 100% with 50 mM potassium nitrate)
[12] = HEK293, Sample Conc. 0.0167%, read-out: Activity Level (percentage of activity relative to 100% with 50 mM potassium nitrate)
[13] = HEK293, Sample Conc. 0.0330%, read-out: Activity Level (percentage of activity relative to 100% with 50 mM potassium nitrate)
[14] = HEK293, read-out: Activity Level (percentage of activity relative to 100% with 50 mM potassium nitrate)
[15] = sample concentration 50 μM, relative to 50 mM potassium nitrate
[16] = sample concentration 100 μM, relative to 50 mM potassium nitrate
[17] = sample concentration 200 μM, relative to 50 mM potassium nitrate

Compound: CC=Cc1ccc(OC)c(OC)c1 [1,2-Dimethoxy 4-propenyl benzene]
activation at 50 µM [1, 3]: 5.19% | activation at 100 µM [1, 3]: 10.5% | activation at 200 µM [1, 3]: 29.1%

Compound: CC(C)CC=C(C=O)C(C)C [2-Isopropyl-5-methyl-2-hexenal]
activation at 50 µM [1, 4]: 11.1% | activation at 100 µM [1, 5]: 21.1% | activation at 200 µM [1, 6]: 46.3% | activation at 400 µM ([1]; HEK293, sample concentration 400 μM, relative to 50 mM potassium nitrate, read-out: Fluorescence per Sample concentration (percent activity relative to potassium nitrate)): ≥ 50%

Compound: Oc1ccccc1-c1ccccc1 [2-Phenylphenol]
activation at 50 µM [1, 3]: 0.35% | activation at 100 µM [1, 3]: 0.85% | activation at 200 µM [1, 3]: 12.9% | activation at 400 µM [1, 3]: ≥ 50%

Compound: CCCCC(CC)CCC(=O)O (centres unmarked) [4-Ethyloctanoic Acid]
activation at 50 µM [1, 4]: 31% | activation at 100 µM [1, 5]: 44.6% | activation at 200 µM [1, 6]: 77.3%

Compound: CC(C)C=C(C=O)c1ccccc1 [4-Methyl-2-phenyl-2 Pentenal]
activation at 50 µM [1, 4]: 16.5% | activation at 100 µM [1, 5]: 27.1% | activation at 200 µM [1, 6]: 52.1%

Compound: CCCCCC(C)CCC(=O)O (centres unmarked) [4-Methylnonanoic acid]
activation at 50 µM [1, 4]: 24.8% | activation at 100 µM [1, 5]: 38.5% | activation at 200 µM [1, 6]: 79.9%

Compound: CCCCOC(=O)CC(CC(=O)OCCCC)(OC(C)=O)C(=O)OCCCC [Acetyl Tributyl Citrate]
activation at 0.0005 % [1, 7]: 2.69% | activation at 0.001 % [1, 8]: 0.48% | activation at 0.0021 % [1, 9]: 3.06% | activation at 0.0042 % [1, 10]: 2.5% | activation at 0.0083 % [1, 11]: 5.89% | activation at 0.0167 % [1, 12]: 14.1% | activation at 0.033 % [1, 13]: 24%

Compound: CCCCCCCCOC(=O)CCCCC(=O)OCCCCCCCC [Dioctyl Adipate]
activity on TREK-1 compared with potassium nitrate [1]: higher activity on TREK-1 than potassium nitrate | activation at 0.0005 % [1, 14]: 8.93% | activation at 0.001 % [1, 14]: 13.7% | activation at 0.0021 % [1, 14]: 18.1% | activation at 0.0042 % [1, 14]: 22.9% | activation at 0.0083 % [1, 14]: 38.9% | activation at 0.0167 % [1, 14]: > 70% | activation at 0.033 % [1, 14]: 132%

Compound: CC(C)[C@@H]1CC[C@@H](C)C[C@H]1O [L- Menthol]
cooling threshold [2]: about 800 ppb

Compound: O=[N+]([O-])[O-].[K+] [Potassium Nitrate, reference compound]
Activity Level (percentage of activity relative to 100% with 50 mM potassium nitrate) [1]: 100% | Fluorescence per Sample concentration (percent activity relative to potassium nitrate) [1]: 100% | percentage of TREK-1 activity relative to potassium nitrate [1]: 100%

Compound: CC(C)[C@@H]1CC[C@@H](C)C[C@@H]1O [Sample 1-neomenthol, 1-neomenthol]
cooling threshold [2]: about 3,000 ppb

Compound: CC(C)[C@@H]1CC[C@@H](C)C[C@@H]1O [d-neomenthol]
cooling threshold [2]: about 25,000 ppb

The next lines start with results.

Activity Level (percentage of activity relative to 100% with 50 mM potassium nitrate) ([1]; Sample Conc. 0.0005%): 5.92% | Activity Level (percentage of activity relative to 100% with 50 mM potassium nitrate) ([1]; Sample Conc. 0.0010%): 13.39% | Activity Level (percentage of activity relative to 100% with 50 mM potassium nitrate) ([1]; Sample Conc. 0.0021%): 20.49% | Activity Level (percentage of activity relative to 100% with 50 mM potassium nitrate) ([1]; Sample Conc. 0.0042%): 26.65% | Activity Level (percentage of activity relative to 100% with 50 mM potassium nitrate) ([1]; Sample Conc. 0.0083%): 43.09% | Activity Level (percentage of activity relative to 100% with 50 mM potassium nitrate) ([1]; Sample Conc. 0.0167%): 84.83% | Activity Level (percentage of activity relative to 100% with 50 mM potassium nitrate) ([1]; Sample Conc. 0.0330%): 109.75%
Compound: CCCCC(CC)COP(=O)(O)OCC(CC)CCCC (centres unmarked) [Bis (2-ethyl hexyl) Phosphate]
activity on TREK-1 compared with potassium nitrate ([1]; 0.033% Sample concentration vs 50 mM (0.505%) potassium nitrate): higher activity on TREK-1 than potassium nitrate

activation at 0.0005 % [1, 7]: 1.31% | activation at 0.001 % [1, 8]: 1.38% | activation at 0.0021 % [1, 9]: 3.43% | activation at 0.0042 % [1, 10]: 3.56% | activation at 0.0083 % [1, 11]: 6.59% | activation at 0.0167 % [1, 12]: 14.8% | activation at 0.033 % [1, 13]: 30.4%
Compound: CC(C)OC(=O)CCCCC(=O)OC(C)C [Diisopropyl Adipate]

activation at 0.0005 % [1, 7]: 0% | activation at 0.001 % [1, 8]: 0% | activation at 0.0021 % [1, 9]: 0% | activation at 0.0042 % [1, 10]: 0% | activation at 0.0083 % [1, 11]: 0.51% | activation at 0.0167 % [1, 12]: 2.66% | activation at 0.033 % [1, 13]: 12.2%
Compound: CCCOC(=O)CCCCC(=O)OCCC [Dipropyl Adipate]

percentage of TREK-1 activity relative to potassium nitrate ([1]; Sample Concentration 0.0005%): 2.35% | percentage of TREK-1 activity relative to potassium nitrate ([1]; Sample Concentration 0.0010%): 2.33% | percentage of TREK-1 activity relative to potassium nitrate ([1]; Sample Concentration 0.0021%): 2.66% | percentage of TREK-1 activity relative to potassium nitrate ([1]; Sample Concentration 0.0042%): 4.94% | percentage of TREK-1 activity relative to potassium nitrate ([1]; Sample Concentration 0.0083%): 8.31% | percentage of TREK-1 activity relative to potassium nitrate ([1]; Sample Concentration 0.0167%): 17.4% | percentage of TREK-1 activity relative to potassium nitrate ([1]; Sample Concentration […]): 29.43%
Compound: COC(=O)c1ccccc1O [Methyl Salicylate]

percentage of TREK-1 activity relative to potassium nitrate ([1]; Sample Concentration 0.0005%): 4.57% | percentage of TREK-1 activity relative to potassium nitrate ([1]; Sample Concentration 0.0010%): 4.82% | percentage of TREK-1 activity relative to potassium nitrate ([1]; Sample Concentration 0.0021%): 3.86% | percentage of TREK-1 activity relative to potassium nitrate ([1]; Sample Concentration 0.0042%): 4.09% | percentage of TREK-1 activity relative to potassium nitrate ([1]; Sample Concentration 0.0083%): 6.73% | percentage of TREK-1 activity relative to potassium nitrate ([1]; Sample Concentration 0.0167%): 31.4% | percentage of TREK-1 activity relative to potassium nitrate ([1]; Sample Concentration […]): 65.22%
Compound: Cc1ccc(C(C)C)c(O)c1 [Thymol]

activation at 0.0005 % [1, 7]: 4.06% | activation at 0.001 % [1, 8]: 1.7% | activation at 0.0021 % [1, 9]: 2.98% | activation at 0.0042 % [1, 10]: 3.67% | activation at 0.0083 % [1, 11]: 6.17% | activation at 0.0167 % [1, 12]: 13.4% | activation at 0.033 % [1, 13]: 17.2%
Compound: CCOC(=O)CC(O)(CC(=O)OCC)C(=O)OCC [Triethyl Citrate]

Fluorescence per Sample concentration (percent activity relative to potassium nitrate) [1, 15]: 1.77% | Fluorescence per Sample concentration (percent activity relative to potassium nitrate) [1, 16]: 3.41% | Fluorescence per Sample concentration (percent activity relative to potassium nitrate) [1, 17]: 18.74%
Compound: CCCCCCCCC1CCC(=O)O1 (centres unmarked) [gamma-Dodecalactone]

Fluorescence per Sample concentration (percent activity relative to potassium nitrate) [1, 15]: 3.21% | Fluorescence per Sample concentration (percent activity relative to potassium nitrate) [1, 16]: 3.54% | Fluorescence per Sample concentration (percent activity relative to potassium nitrate) [1, 17]: 9.82% | Fluorescence per Sample concentration (percent activity relative to potassium nitrate) ([1]; sample concentration 400 μM, relative to 50 mM potassium nitrate): 15.89%
Compound: CCCCCCCCCCC1CCC(=O)O1 (centres unmarked) [gamma-Tetradecalactone]

percentage of TREK-1 activity relative to potassium nitrate ([1]; Sample Concentration 0.0005%): 1.85% | percentage of TREK-1 activity relative to potassium nitrate ([1]; Sample Concentration 0.0010%): 0.97% | percentage of TREK-1 activity relative to potassium nitrate ([1]; Sample Concentration 0.0021%): 2.7% | percentage of TREK-1 activity relative to potassium nitrate ([1]; Sample Concentration 0.0042%): 2.03% | percentage of TREK-1 activity relative to potassium nitrate ([1]; Sample Concentration 0.0083%): 9.51% | percentage of TREK-1 activity relative to potassium nitrate ([1]; Sample Concentration 0.0167%): 24.1% | percentage of TREK-1 activity relative to potassium nitrate ([1]; Sample Concentration […]): 98.65%
Compound: L-Carvone
